# What was measured:
# GR fusion proteins = settings: cited from earlier work
# [1] = system: S. cerevisiae strain FY250
# Excerpt: The plasmids encoding the LexA- and B42-fusion proteins were introduced in all necessary combinations into S. cerevisiae strain FY250 containing a plasmid encoding the lacZ reporter plasmid.
# All of these experiments have been done as plate assays. The toxicity of the ligand and receptor is judged simply by seeing if either induction of the receptor fusions or application of the ligand to the plate impairs cell growth.
smiles,measurement,setting,value
"C[C@@H]1C[C@H]2[C@@H]3CCC4=CC(=O)C=C[C@]4(C)[C@@]3(F)[C@@H](O)C[C@]2(C)[C@@]1(O)C(=O)CO [DEX, Dexamethasone]",cell permeability,GR fusion proteins,cell permeable
same,modification or breakdown in the cell,GR fusion proteins,not modified or broken down in the cell
same,toxicity (impaired cell growth),[1],neither DEX nor GR are toxic
